From patent US9241930B2, “Compositions and methods for treating viral diseases” (NovaDrug, LLC, priority 2011, dated 2016)

System: mouse bone marrow polychromatic erythrocytes
Conditions: mice, single oral gavage

O=P1(N(CCCl)CCCl)NCCCO1 (centres unmarked) [Cyclophosphamide monohydrate]
bone marrow cytotoxicity (erythropoiesis): some cytotoxicity
incidence of micronucleated polychromatic erythrocytes (48 hour time-point, p≦0.05): significant increase
